Test results taken from PMC5828182, “Inhibition of nuclear factor of activated T cells (NFAT) c3 activation attenuates acute lung injury and pulmonary edema in murine models of sepsis” (Oncotarget, 2018).

Legend:
[1] = test system: NFAT dependent gene expression; conditions: liver allograft patients, after 8–12 months; cited from earlier work
NFAT = conditions: cited from earlier work
From the text: (§1) Research efforts to identify NFAT inhibitors span over the last two decades but so far none of them performed well in the clinical trials.

[2] = test system: mouse models of Alzheimer's disease; conditions: mice; cited from earlier work
diabetic db/db mice = conditions: cited from earlier work
[3] = test system: islet allografts between BL/6 and C3H/HeN mouse strains; conditions: BL/6 and C3H/HeN mice; cited from earlier work
[4] = test system: experimental colitis model in mice; conditions: cited from earlier work
[5] = test system: NFATc3−/− and wild type mice, severe CLP sepsis; assay: survival after severe (lethal) CLP; assay type: in vivo, mouse
Experimental: Figure 5 NFATc3^−/− mice show improved arterial Oxygen saturation and survival compared to wild type mice (A) NFATc3^−/− and wild type mice (N = 5) were injected with 15 mg/kg LPS i.p and the arterial oxygen saturation was measured using STARR Life Sciences Corp. Pulse Oximeter. (B–C) NFATc3^−/− and wild type mice (N = 5 sham control group; N = 10 CLP group) were subjected to severe CLP, maintained on regular or imipenem monohydrate supplemented water and the survival was monitored over a period of 96 h. A^* p ≤ 0.001 WT-LPS vs. WT-Control; ^** p ≤ 0.01 NFATc3^−/− LPS vs. WT-LPS.
Cecal ligation puncture (CLP) sepsis models were established according to Cuenca et al.. In an anesthetized mouse, the cecum is exposed and ligated below ileo-cecal valve and two perforations were made across the cecum using 21G needle. The cecum is then compressed to express minute amount of fecal material. To establish moderate CLP sepsis the cecum was ligated at less than 1.0 cm from the distal end and for severe sepsis about 2.0 cm of the cecum from distal end was ligated. Pulmonary edema, arterial oxygenation, and inflammation were evaluated in moderate CLP sepsis models. […] LPS (15 mg/kg) or the same volume of normal saline was administered into intraperitoneal cavity of WT or NFATc3^−/− mice and arterial oxygenation was measured by pulse oximetry. […]

plaque psoriasis = conditions: cited from earlier work
From the text: as §1

calcineurin = conditions: derivative of cyclosporine; cited from earlier work
From the text: as §1

C=CC[C@@H]1/C=C(\C)C[C@H](C)C[C@H](OC)[C@H]2O[C@@](O)(C(=O)C(=O)N3CCCC[C@H]3C(=O)O[C@H](/C(C)=C/[C@@H]3CC[C@@H](O)[C@H](OC)C3)[C@H](C)[C@@H](O)CC1=O)[C@H](C)C[C@@H]2OC [Tacrolimus]
NFAT dependent gene expression [1]: increased NFAT dependent gene expression

COc1cc(C[C@H]2C(=O)OC[C@@H]2Cc2ccc(OC)c(OC)c2)ccc1O [Arctigenin]
NFAT inhibition (NFAT): variable degree of NFAT inhibition

O=c1c(O)c(-c2ccc(O)cc2)oc2cc(O)cc(O)c12 [kaempferol]
NFAT inhibition (NFAT): variable degree of NFAT inhibition

11R-VIVIT
microgliosis and Amyloid β peptide (Aβ) plaque load [2]: attenuated | albuminuria (diabetic db/db mice): markedly attenuates | mesangial matrix expansion and podocyte injury (diabetic db/db mice): alleviated | immunosuppression in islet allografts [3]: improved immunosuppression | effect in experimental colitis [4]: protective effect

C[C@@H](O)[C@H]1C(=O)N2C(C(=O)O)=C(SCCN=CN)C[C@H]12 [imipenem, imipenem monohydrate]
survival ([5]; NFATc3−/− mice, imipenem in drinking water, monitored over 96 h, N = 10 CLP group): 60% | lethality / survival of WT mice ([5]; WT mice, imipenem (broad-spectrum antibiotic) in drinking water, 96 h): not improved any further

C=C/C=C/C[C@@H](C)[C@@H](O)[C@H]1C(=O)N[C@@H](CC)C(=O)N(C)CC(=O)N(C)[C@@H](CC(C)C)C(=O)N[C@@H](C(C)C)C(=O)N(C)[C@@H](CC(C)C)C(=O)N[C@@H](C)C(=O)N[C@H](C)C(=O)N(C)[C@@H](CC(C)C)C(=O)N(C)[C@@H](CC(C)C)C(=O)N(C)[C@@H](C(C)C)C(=O)N1C [ISA247]
phase III outcome (plaque psoriasis): did not result in to any commercial products so far | calcineurin inhibition (calcineurin): more potent and effectively inhibited Calcineurin

Cc1cc2c(C(C)C)c(O)c(O)c(C=O)c2c(O)c1-c1c(C)cc2c(C(C)C)c(O)c(O)c(C=O)c2c1O [gossypol]
NFAT inhibition (NFAT): variable degree of NFAT inhibition
